These are literature values, as cited in patent publication US5723149A, “Use of medicago saponins for the preparation of cosmetic or pharmaceutical compositions, especially dermatological compositions, promoting renewal of the epidermis, stimulating hair regrowth or delaying hair loss” (LVMH Recherche, priority 1990, dated 1998).

For data set [1] the following is noted: DE-3 717 280.
The conditions of data set [2]: B. GESTETNER et al., Experientia, 1971.

As for `CC1(C)CC[C@]2(C(=O)O)CC[C@]3(C)C(=CC[C@@H]4[C@@]5(C)C[C@H](O)[C@H](O)[C@@](C)(C(=O)O)[C@@H]5CC[C@]43C)[C@@H]2C1` [medicagenic acid], in data set [1], the antifungal activity entry is “antifungal activity”. Further, the hemolytic activity entry in data set [2] is given as “hemolytic activity”.
